In patent publication US8829014B2, “Thiazole and thiophene analogues, and their use in treating autoimmune diseases and cancers” (Board of Supervisors of Louisiana State University and …, priority 2006, dated 2014):
“Also recorded” adds a separate entry of the source.

Experiments:
AP-1 [1] = experiment: AP-1 inhibitor screen: basal AP-1-dependent luciferase expression in HEK/AP-1 cell line; format: cell-based
How it was run: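 HEK293 cells stably carrying a luciferase reporter driven by three AP-1 elements were plated 24 hr, then given compound at 1.0 μM in 0.3% DMSO for 48 hr, in triplicate. Basal expression without stimulus was read as luminescence (Brite-Glo), normalized to DMSO; dose-response runs repeated two to four times.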

NF-κB [2] = experiment: NF-κB inhibitor screen: basal NF-κB-dependent luciferase expression in HEK/NF-κB cell line; format: cell-based
How it was run: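 HEK293 cells stably carrying a luciferase reporter under six NF-κB elements were treated with compound, unstimulated, 24 h after plating. Compounds were first tested at 1.0 μM (0.3% DMSO), later at six doses from 10 to 3300 nM, in triplicate. Brite-Glo luciferase signal was normalized to DMSO, or to the lowest dose for dose-response runs.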

eIF4E = eIF4E inhibitor screen: luciferase under FGF 5′UTR in FaDu cells (highly cap-dependent translation); format: cell-based; conditions: for luciferase expression under the control of the FGF 5′UTR: 1.0 μM, 48 h, FaDu UTR cells, normalized to DMSO (FIG. 8)
Description: Since highly cap-dependent translation is associated with synthesis of proteins involved in cancer, a compound that inhibits this pathway may be used as an anti-cancer agent. The assay was developed by cloning the highly structured 5′ UTR of FGF, which requires high levels of eIF4E before protein synthesis can initiate, into the proper orientation of the reporter gene luciferase, and then stably transfecting the modified luciferase gene into the cell line FaDu that is known to have high levels of eIF4E. The activity of luciferase is then monitored in the presence and absence of the tested compound.
Generation of Stable Cell Lines: The pMS110 plasmid (pGL3-control plasmid from Promega which contains a neo selectable marker) was used to generate pMS110-5′UTR by cloning the 5′ UTR of FGF just upstream of the luciferase AUG start codon. FaDu cells, a head and neck cancer cell line, were transfected using Lipofectamine2000 (Invitrogen). Twenty-four hours after transfection G418 was added at 500 μg/ml. Cells were maintained in G418 for 14 days, and then individual colonies were transferred to a 96-well plate for propagation. Individual clones were analyzed for luciferase expression by plating 10^4 cells per well in a 96-well plate for 24 hours before lysing the cells and analyzing for luciferase activity in a Victor III (Perkin Elmer) or Lucy2 (Rosys Anthos). FaDu9000 and FaDuUTR were the clones that expressed the highest level of active luciferase following transfection of pMS110 and pMS110-5′UTR, respectively.
Analysis of Rapamycin Responsiveness: Cells of FaDu9000 and FaDuUTR were plated at 1×10^4 cells/well in a 96-well dish. Twenty-four hours after plating, 0.1% DMSO (vehicle control) or 10 nM rapamycin were added to each well, and the cells were maintained for an additional 24 or 48 hours. The cells were then lysed and luciferase activity was determined using BriteGlo (Promega) as per manufacturer's instruction and recorded using the Victor III. Following subtraction of background activity, the mean value of quadruplicate samples for a given experiment was determined, and the treated cells were normalized to the control. At least four separate experiments were conducted, and the mean and standard error were calculated. To determine if rapamycin affected cell viability, an MTS assay (Cell Proliferation One Solution, Promega) was carried out on each population at 48 hours in two separate experiments.
The FaDu cell line stably transfected with FGF 5′UTR was used to screen thirty-nine representative compounds, each at a concentration of 1.0 μM. Additional cells were treated with vehicle, 0.3% DMSO. Cells were plated for twenty-four hours in a 96-well plate. Each compound was then added to triplicate wells, and the cells were incubated for forty-eight hours before measuring luciferase activity as above. The mean luciferase activity was measured using Promega's Brite-Glo kit, and the mean for each sample was normalized to DMSO. The experiment was then repeated, and the average and standard deviation of the two experiments were determined (FIG. 8).

carageenan-induced edema = experiment: Carrageenan-induced rat paw edema test (anti-inflammatory activity); format: in vivo, Sprague-Dawley rats
How it was run: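 Sprague-Dawley rats (male and female, 150-250 g), fasted 18 h, given compound orally at 50 mg/kg in 0.1% sodium CMC (alternatively i.v., s.c. or i.p.). 1% carrageenan injected sub-plantar in right hind paw 1 h later. Paw displacement read again 3 h later; % protection = [(Control−Test)/Control]×100 versus saline control.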

NF-κB [3] = experiment: TNF-α-induced NF-κB-dependent luciferase expression in HEK cells; format: cell-based; parameters: NF-κB % inhibition: concentration or dose not given beside the values; conditions: for NF-κB % inhibition: four lead compounds, Table 13
[4] = test system: cell lines from the prostate, one tumorigenic and one non-tumorigenic; experiment: MTT viability in prostate cell line pair, tumorigenic and non-tumorigenic; format: cell-based; conditions: 10 μM, 48 h, tumorigenic vs non-tumorigenic line
Procedure: Additional compounds have also been tested for their ability to inhibit both TNF-α-induced NF-κB—expression and PMA-induced AP-1 expression. In both tests, the compound was added for 1 h, then the appropriate inducer was added, and luciferase activity was monitored 24 h later. Values were then normalized to the vehicle control, DMSO. Following the initial luciferase screens, studies were conducted to assess the cytotoxicity of the compounds in normal cells such as VSMC, HUVEC, or HPT cells. Human umbilical vein endothelial cells (HUVEC) represent the normal endothelium, vascular smooth muscle cells (VSMC) were represented by cells from the adult rat aorta, and human proximal tubule (HPT) cells represent the normal proximal tubule in vivo. These cells were grown to near confluency in multi-well plates, and were then treated for 48 h with either vehicle (0.1% DMSO) or 10 μM of each drug candidate. Following treatment, the media from the VSMC and HUVEC incubations were removed, and the amount of lactate dehydrogenase (LDH) released into the medium was determined with a commercial kit. LDH is normally confined to the cytosol, and its release represents “leakiness” of the plasma membrane. LDH activity was expressed as % increase over vehicle-treated cells. […] The number of both live and dead cells was counted using an automated cell viability analyzer. The % decrease in numbers of viable cells was determined. Toxicity in the treated HPT cells was determined by the ethidium homodimer (EthHD) uptake assay. […] Results were expressed as a % increase in cell death over vehicle-treated cells. […] Following treatment, the viability of the cells was determined by the MTT assay. In this assay, the MTT dye is converted only in viable cells by intracellular enzymes to a colorimetric product that is quantitated by a microplate reader.
For the results in Table 13, cells were grown to near confluency in multi-well plates, then treated for 48 h with either vehicle (0.1% DMSO) or 10 μM of each drug candidate. Following treatment, the media from the VSMC and HUVEC incubations were removed, and the amount of lactate dehydrogenase (LDH) released into the medium was determined with a commercial kit and expressed as a % increase over vehicle-treated cells. HPT toxicity was determined by the ethidium homodimer (EthHD) uptake assay. Inside the cell, EthHD produces a strong fluorescent signal, which is proportional to the amount of cell death, expressed as a % increase in cell death over vehicle-treated cells. […] The cells were treated for 48 h with vehicle (0.1% DMSO) or 10 μM of each drug candidate, and the viability of the cells was determined by the MTT assay, expressed as a % decrease in viability compared to vehicle-treated cells. […]

[5] = test system: cell lines from the skin, one tumorigenic and one non-tumorigenic; experiment: MTT viability in skin cell line pair, tumorigenic and non-tumorigenic; format: cell-based; conditions: 10 μM, 48 h, MTT; tumorigenic vs non-tumorigenic line
Procedure: Additional compounds have also been tested for their ability to inhibit both TNF-α-induced NF-κB—expression and PMA-induced AP-1 expression. In both tests, the compound was added for 1 h, then the appropriate inducer was added, and luciferase activity was monitored 24 h later. Values were then normalized to the vehicle control, DMSO. Following the initial luciferase screens, studies were conducted to assess the cytotoxicity of the compounds in normal cells such as VSMC, HUVEC, or HPT cells. Human umbilical vein endothelial cells (HUVEC) represent the normal endothelium, vascular smooth muscle cells (VSMC) were represented by cells from the adult rat aorta, and human proximal tubule (HPT) cells represent the normal proximal tubule in vivo. These cells were grown to near confluency in multi-well plates, and were then treated for 48 h with either vehicle (0.1% DMSO) or 10 μM of each drug candidate. Following treatment, the media from the VSMC and HUVEC incubations were removed, and the amount of lactate dehydrogenase (LDH) released into the medium was determined with a commercial kit. LDH is normally confined to the cytosol, and its release represents “leakiness” of the plasma membrane. LDH activity was expressed as % increase over vehicle-treated cells. In another assay of viability, the treated VSMC and HUVEC were removed by trypsinization and treated with trypan blue, a dye that is taken up only by dead cells. The number of both live and dead cells was counted using an automated cell viability analyzer. The % decrease in numbers of viable cells was determined. Toxicity in the treated HPT cells was determined by the ethidium homodimer (EthHD) uptake assay. EthHD is a fluorescent dye that is excluded from live cells, but is taken up by cells that have lost permeability barriers. Inside the cell, EthHD produces a strong fluorescent signal, which is proportional to the number of dead cells. Results were expressed as a % increase in cell death over vehicle-treated cells. The lead compounds were also tested in two pairs of cell lines from either the skin or prostate, one tumorigenic and one non-tumorigenic, to test for any differences in toxicity or heightened sensitivity in the tumorigenic lines. The cells were treated for 48 h with vehicle (0.1% DMSO) or 10 μM of each drug candidate. Following treatment, the viability of the cells was determined by the MTT assay. In this assay, the MTT dye is converted only in viable cells by intracellular enzymes to a colorimetric product that is quantitated by a microplate reader.
For the results in Table 13, cells were grown to near confluency in multi-well plates, then treated for 48 h with either vehicle (0.1% DMSO) or 10 μM of each drug candidate. Following treatment, the media from the VSMC and HUVEC incubations were removed, and the amount of lactate dehydrogenase (LDH) released into the medium was determined with a commercial kit and expressed as a % increase over vehicle-treated cells. HPT toxicity was determined by the ethidium homodimer (EthHD) uptake assay. Inside the cell, EthHD produces a strong fluorescent signal, which is proportional to the amount of cell death, expressed as a % increase in cell death over vehicle-treated cells. The lead compounds were also tested in two pairs of cell lines from the skin or prostate, one tumorigenic and one non-tumorigenic, to test for differing toxicity or heightened sensitivity in the tumorigenic lines. The cells were treated for 48 h with vehicle (0.1% DMSO) or 10 μM of each drug candidate, and the viability of the cells was determined by the MTT assay, expressed as a % decrease in viability compared to vehicle-treated cells. The in vivo inflammation model measured the % inhibition of rat paw edema induced by carageenan injection.

AP-1 [6] = experiment: PMA-induced AP-1 luciferase expression in HEK cells; format: cell-based; conditions: for AP-1 % inhibition: four lead compounds, Table 13; for IC50: 6 point dose-response curves, read-out: IC50 concentrations AP-1
[7] = rat paw edema induced by carageenan injection

Compound	luciferase expression under the control of the FGF 5′UTR (eIF4E)	Differential Toxicity* Prostate [4]	In vivo inflammation % inhibition (carageenan-induced edema; [7]) [%]	Differential Toxicity* Skin [5]	AP-1 % inhibition (AP-1 [6]) [%]	also measured
2-(4-Methyl-2-methylamino-thiazol-5-yl)-3-(4-chloro-phenyl)-3H-quinazolin-4-one [Example 244]	inhibited luciferase expression	–	–	–	–	basal AP-1-dependent luciferase, six-point dose response (AP-1 [1]; 10 nM-3300 nM (FIG. 14)): substantial activity at submicromolar concentrations; basal NF-κB-dependent luciferase, six-point dose response (NF-κB [2]; 10 nM-3300 nM (FIG. 12), listed as Compound 4): substantial activity at submicromolar concentrations; also recorded: robust inhibition; inhibition of basal NF-κB-dependent luciferase expression (NF-κB [2]; 3.3 μM (FIG. 12)): about 50%; inhibition of NF-κB (summary statement) (NF-κB [2]; summary in the disclosure): capable of inhibiting; inhibition of highly cap-dependent translation (summary statement) (eIF4E; summary in the disclosure): capable of inhibiting
COc1ccc(C(=O)c2sc(Nc3ccccc3)nc2N)cc1 [Example 115, (4-Amino-2-phenylamino-thiazole-5-yl)-4-(methoxy-phenyl)-methanone]	increased luciferase expression	–	–	–	–	basal NF-κB-dependent luciferase expression (NF-κB [2]; 1.0 μM screen of 39 compounds (FIG. 11)): potentiated expression in one of the two experiments; % Protection P (carageenan-induced edema; rat paw edema, 50 mg/kg, reading 3 hours after carrageenan; [(Control−Test)/Control]×100%; 50 mg/kg): 90.92%
CCOC(=O)Nc1nc(-c2ccccc2)c(-c2nc3ccccc3c(=O)n2-c2ccccc2)s1 [Example 159, [5-(4-Oxo-3-phenyl-3,4-dihydro-quinazolin-2-yl)-4-phenyl-thiazol-2-yl]-carbamic acid ethyl ester]	increased luciferase expression	–	–	–	–	inhibition at 1 µM (AP-1 [1]; AP1, 1 uM, determined as described in Example 398): 7%; inhibition at 1 µM (NF-κB [2]; 1 uM, determined as described in Example 398, read-out: NFkB inhibition @ 1 uM): 80%; inhibition in vivo at 50 mg/kg (carageenan-induced edema; po, 3 h; carrageenan-induced rat paw edema; defined in Example 397; read-out: % Protection): 75%
Cc1ccccc1-n1c(-c2sc(Nc3ccccc3)nc2C)nc2ccccc2c1=O [PMCR 20]	–	Cancer	42	Neither	73	NF-κB % inhibition (NF-κB [3]): 21%
CNc1nc(-c2ccccc2)c(-c2nc3ccccc3c(=O)n2-c2ccccc2OC)s1 [PMCR 75]	–	Normal	56	Both	90	IC50 (NF-κB [3]; 6 point dose-response curves, read-out: IC50 concentrations NF-κB): 500 nM; IC50 (AP-1 [6]): 200 nM
Cc1nc(Nc2ccc(Cl)cc2)sc1-c1nc2ccccc2c(=O)n1-c1ccccc1Cl [PMCR 120]	–	Both	58	Cancer	27	–
CC(=O)c1ccc(-n2c(-c3cc(-c4ccncc4)c(N4CCOCC4)s3)nc3ccccc3c2=O)cc1 [PMCR 242]	–	Cancer	80	Neither	84	NF-κB % inhibition (NF-κB [3]): 66%; inflammation in the in vivo assay (carageenan-induced edema; rat paw edema): strongly inhibited inflammation; IC50 (AP-1 [6]): 5000 nM
Bis-(2-phenylamino-4-benzayl-thiazole-5-yl)-methanone [Example 133]	inhibited luciferase expression	–	–	–	–	NFkB inhibition @ 1 uM (NF-κB [3]; 1 uM, luciferase in HEK/NF-κB cells, as described in Example 398): 17.74; % Protection P (carageenan-induced edema; rat paw edema, 50 mg/kg, reading 3 hours after carrageenan; [(Control−Test)/Control]×100%): 19.09%; AP-1 inhibition @ 1 uM (AP-1 [6]; 1 uM, luciferase in HEK/AP-1 cells, as described in Example 398): 24.53
